What was measured:
[1] = test system: I-125 NR-LU-10-streptavidin conjugate; assay: In vivo pretargeting-format clearance of I-125 NR-LU-10-streptavidin conjugate from circulation; set-up: species or system mice (BALB/c)
Experimental: In a third set of experiments conducted in vivo in the pretargeting format (e.g., administration of radiolabeled MAb-streptavidin conjugate followed by administration of clearing agent), the (galactosyl)8 -LC-biotin conjugate was also compared to galactose-HSA-biotin prepared as described above. This comparison was conducted in a Balb/c mouse model and was for the ability to clear an I-125 labeled monoclonal antibody-streptavidin conjugate (1-125 LU-10-streptavidin) from circulation as a function of time. […] Subsequent experiments have further shown that hepatic-directed compounds containing 16 galactose residues provide for even better clearance than those containing 8 galactose residues.
Having shown that precomplexed material could clear rapidly and efficiently from the blood, experiments were conducted to measure the effectiveness of various doses of-the 16 galactose-biotin construct to form rapidly clearing complexes in vivo. Mice received 400 micrograms of I-125 NR-LU-10streptavidin conjugate intravenously, and approximately 22 hours later received the 16 galactose-biotin construct at doses of 100 50, or 10:1 (456, 228 and 45 micrograms, respectively) molar excess to circulating monoclonal antibody-streptavidin conjugate. […] The larger doses may be sufficiently high to achieve competition between complexed and non-complexed 16-galactose-biotin for liver receptors, thereby precluding all but a small initial fraction of the complexed MAb-streptavidin conjugate from clearing via the liver. Following the plateau period, clearing of the conjugate remained slow and was eventually less complete than that achieve with the lower dose (approximately 10% of the conjugate remained in circulation at the higher doses, in comparison to 2% for the lower dose). […] If the 16 galactose-biotin construct is unstable, sufficient biotin may be released at higher doses to that a significant portion of circulating conjugate became blocked thereby and, consequently, was not cleared via hepatic-mediated uptake.

[2] = test system: SW-1222 colon tumor xenografts; assay: Tumor targeting of Y-90-DOTA-biotin after NR-LU-10-streptavidin and 16 galactose-biotin, SW-1222 colon xenograft; format: in vivo, nude mice
Experimental: (§1) Having shown that effective clearing could be achieved with the appropriate does of 16 galactose-biotin construct, studies were undertaken in tumored nude mice to evaluate the potential blockade of tumor-associated conjugate by the small 16 galactose-biotin. Mice bearing either SW-1222 colon tumor xenografts or SHT-1 small cell lung cancer (SCLC) tumor xenografts were pretargeted with NR-LU-10-streptavidin conjugate and, 22 hours later, received 46 micrograms of 16 galactose-biotin. After 2 hours, Y-90-DOTA-biotin prepared as described above was administered, and its uptake and retention in tumor and non-target tissues was evaluated by sacrifice and tissue counting for radioactivity 2 hours post-administration.
(§2) The historical controls were conducted with a 3 hour time period between clearing agent and radioactivity administration.

[3] = test system: MAb-streptavidin conjugate; assay: Serum/blood clearance of MAb-streptavidin conjugate with galactose cluster-biotin conjugates (precomplexed ex vivo, or given after the conjugate); format: in vivo, mouse; details: precomplexed at 20-fold molar excess; 120 or 12 micrograms i.v.; vs antibody conjugate control; BALB/c female
Experimental: Some or all of these compounds were assayed for their clearance directing activity in two sets of experiments. The first set of experiments involved ex vivo preparation of a precomplexed monoclonal antibody-streptavidin-biotin-galactose cluster conjugate labeled with I-125, intravenous administration of the conjugate in a mouse model, and measuring serum levels of the conjugate over time. The second set of experiments involved intravenous administration of MAb-streptavidin conjugate followed by administration of biotin-galactose cluster conjugate.
NR-LU-10 antibody (MW 150 kD) was conjugated to streptavidin (MW 66 kD) (as described in Example II above), and radiolabeled with ^125 I/PIP-NHS as described below. The antibody component of the conjugate was radioiodinated using p-aryltin phenylate NHS ester (PIP-NHS) and ^125 I sodium iodide. […]
Experiments were designed and executed to evaluate a 16 galactose cluster-biotin construct without the stabilizing tertiary amine structure of the nitrogen of the amide closest to the biotin, the preparation of such a stabilized construct being described above in Example V. BALB/c female mice (20-25 g) were injected i.v. with 120 micrograms of NR-LU-10-streptavidin conjugate radiolabeled with I-125, and blood was serially collected from n=3 mice. The clearance of the conjugate from the blood was measured of these control mice. […]

MAb-streptavidin = assay: Relative stoichiometry of In-111 DOTA-biotin to I-125 MAb-streptavidin at the tumor target site; format: in vivo; details: I-125 MAb-streptavidin and In-111 DOTA-biotin
Description: Experiments were. also carried out using I-125 labeled MAb-streptavidin conjugate and In-111 labeled DOTA-biotin to assess the relative stoichiometry of those materials at the tumor target site using 16 galactose-biotin as a clearing agent. […] When a similar protocol was employed with the 16 galactose-biotin construct, the ratio of DOTA-biotin to MAb-streptavidin was only 2.65. […] Experiments to assess the nature of this blockade are underway.

[4] = test system: SHT-1 small cell lung cancer (SCLC) tumor xenografts; assay: Tumor targeting of Y-90-DOTA-biotin after NR-LU-10-streptavidin and 16 galactose-biotin, SHT-1 SCLC xenograft; format: in vivo, nude mice
Experimental: as §1, §2

[5] = Non-target organ uptake of Y-90-DOTA-biotin radioactivity in tumored nude mice; format: in vivo; details: vs historical controls
Experimental: as §1, §2

[6] = 46 micrograms, Y-90-DOTA-biotin, vs historical controls with (galactose)35-HSA-(biotin)2
[7] = vs (galactose)35-HSA-(biotin)2 historical controls

SMILES	Ability to clear I-125 LU-10-streptavidin from circulation ([1]; Balb/c mouse, vs galactosylated-HSA-biotin)	Tumor targeting, high antigen-expressing colon xenograft [2, 6]	Tumor uptake of radioactivity, SW-1222, overall assessment [2, 7]	Blood clearance of precomplexed conjugate [3]	Efficiency at removing circulating conjugate, lower and higher doses ([1]; 12, 23 and 228 microgram, vs 46 microgram)	Rebound effect, lower doses ([1]; 12 and 23 microgram)	Clearing effectiveness at 46 micrograms vs (galactose)35-HSA-(biotin)2 ([1]; 46 microgram, vs previously optimized dose)	Effectiveness at clearing conjugate, each dose ([1]; 100, 50 or 10:1 molar excess (456, 228 and 45 micrograms), about 22 h after 400 micrograms conjugate)	Optimal clearing dose ([1]; decreasing dose comparison)	Conjugate remaining in circulation, higher doses ([1]; higher doses (456 and 228 micrograms; 100:1, 50:1))	Duration of plateau in conjugate clearance ([1]; larger doses (456, 228 micrograms), after administration of 16 galactose-biotin)	Conjugate remaining in circulation, lower dose ([1]; lower dose (45 micrograms; 10:1))	Clearing of MAb-streptavidin from the circulation, summary ([1]; vascular and extravascular spaces)	Ratio of DOTA-biotin to MAb-streptavidin at the tumor (MAb-streptavidin)	Tumor targeting, low antigen-expressing SCLC xenograft [4, 6]	Tumor uptake of radioactivity, SHT-1, overall assessment [4, 7]	Liver uptake ([5]; 2 hours between clearing agent and radioactivity)	Non-target organ uptake except liver ([5]; Y-90 radioactivity)
CN(CCCCSC1O[C@H](CO)[C@H](O)[C@H](O)[C@H]1O)C(=O)CCCCCN(CCCCCC(=O)N(C)CCCCSC1O[C@H](CO)[C@H](O)[C@H](O)[C@H]1O)C(=O)CCCCCN(CCCCCC(=O)N(CCCCCC(=O)N(C)CCCCSC1O[C@H](CO)[C@H](O)[C@H](O)[C@H]1O)CCCCCC(=O)N(C)CCCCSC1O[C@H](CO)[C@H](O)[C@H](O)[C@H]1O)C(=O)CCCCCN(CCCCCC(=O)N(CCCCCC(=O)N(CCCCCC(=O)N(C)CCCCSC1O[C@H](CO)[C@H](O)[C@H](O)[C@H]1O)CCCCCC(=O)N(C)CCCCSC1O[C@H](CO)[C@H](O)[C@H](O)[C@H]1O)CCCCCC(=O)N(CCCCCC(=O)N(C)CCCCSC1O[C@H](CO)[C@H](O)[C@H](O)[C@H]1O)CCCCCC(=O)N(C)CCCCSC1O[C@H](CO)[C@H](O)[C@H](O)[C@H]1O)C(=O)CCCCCNC(=O)CCCC[C@@H]1SC[C@@H]2NC(=O)N[C@@H]21 (stereo partly drawn) [(galactosyl)8 -LC-biotin]	comparable to galactosylated-HSA-biotin	–	–	–	–	–	–	–	–	–	–	–	–	–	–	–	–	–
CN(CCCCSC1O[C@H](CO)[C@H](O)[C@H](O)[C@H]1O)C(=O)CCCCCN(CCCCCC(=O)N(C)CCCCSC1O[C@H](CO)[C@H](O)[C@H](O)[C@H]1O)C(=O)CCCCCN(CCCCCC(=O)N(CCCCCC(=O)N(C)CCCCSC1O[C@H](CO)[C@H](O)[C@H](O)[C@H]1O)CCCCCC(=O)N(C)CCCCSC1O[C@H](CO)[C@H](O)[C@H](O)[C@H]1O)C(=O)CCCCCN(CCCCCC(=O)N(CCCCCC(=O)N(CCCCCC(=O)N(C)CCCCSC1O[C@H](CO)[C@H](O)[C@H](O)[C@H]1O)CCCCCC(=O)N(C)CCCCSC1O[C@H](CO)[C@H](O)[C@H](O)[C@H]1O)CCCCCC(=O)N(CCCCCC(=O)N(C)CCCCSC1O[C@H](CO)[C@H](O)[C@H](O)[C@H]1O)CCCCCC(=O)N(C)CCCCSC1O[C@H](CO)[C@H](O)[C@H](O)[C@H]1O)C(=O)CCCCCN(CCCCCC(=O)N(CCCCCC(=O)N(CCCCCC(=O)N(CCCCCC(=O)N(C)CCCCSC1O[C@H](CO)[C@H](O)[C@H](O)[C@H]1O)CCCCCC(=O)N(C)CCCCSC1O[C@H](CO)[C@H](O)[C@H](O)[C@H]1O)CCCCCC(=O)N(CCCCCC(=O)N(C)CCCCSC1O[C@H](CO)[C@H](O)[C@H](O)[C@H]1O)CCCCCC(=O)N(C)CCCCSC1O[C@H](CO)[C@H](O)[C@H](O)[C@H]1O)CCCCCC(=O)N(CCCCCC(=O)N(CCCCCC(=O)N(C)CCCCSC1O[C@H](CO)[C@H](O)[C@H](O)[C@H]1O)CCCCCC(=O)N(C)CCCCSC1O[C@H](CO)[C@H](O)[C@H](O)[C@H]1O)CCCCCC(=O)N(CCCCCC(=O)N(C)CCCCSC1O[C@H](CO)[C@H](O)[C@H](O)[C@H]1O)CCCCCC(=O)N(C)CCCCSC1O[C@H](CO)[C@H](O)[C@H](O)[C@H]1O)C(=O)CCCCCNC(=O)CCCC[C@@H]1SC[C@@H]2NC(=O)N[C@@H]21 (stereo partly drawn) [16 galactose-biotin]	–	slightly lower	roughly equivalent	extremely rapid clearance from the blood	less efficient at removing circulating conjugate	significant rebound effect	more effective than the previously optimized dose of (galactose)35 -HSA-(biotin)2	effective at clearing conjugate	46 microgram	approximately 10%	about 1 hour	2%	effective construct for clearing MAb-streptavidin from the circulation	2.65	slightly higher	roughly equivalent	slightly higher levels	comparable in all tissues except liver

Source: US5985826A, “Methods of using hepatic-directed compounds in pretargeting strategies” (NeoRx Corporation, priority 1997, dated 1999)
